According to patent US12415834B2, “GhR-binding peptide and composition comprising same” (priority 2021, dated 2025):
Where two headings read alike, the source gives them in different places. Starred links: 1 amine or outer side, 2 acyl side, 3 side chain; linkers in the order of their positions; H or OH if unused. Positions of bridges follow the written chain, without caps; N, C: chain ends. Non-standard residues stand in square brackets, D forms with d. Residues, ends and D or L forms follow the SMILES beside them. Groups on a side chain read outwards from the residue. *: point of attachment. X12 = NC(=O)[C@H](CCCCN*)NC(=O)CC[C@H](NC(=O)CC[C@H](NC(=O)CCCc1ccc(-c2ccccc2)cc1)C(=O)O)C(=O)O; X3 = NC(=O)[C@H](CCCCN*)NC(=O)CC[C@H](NC(=O)CC[C@H](NC(=O)CCCCCCCCCCCCCCC(=O)O)C(=O)O)C(=O)O; X19 = Cc1ccc(CCCC(=O)N[C@@H](CCC(=O)N[C@@H](CCC(=O)N[C@@H](CCCCN*)C(N)=O)C(=O)O)C(=O)O)cc1; X10 = NC(=O)[C@H](CCCCN*)NC(=O)CC[C@H](NC(=O)CC[C@H](NC(=O)CCCc1ccc(I)cc1)C(=O)O)C(=O)O; X5 = NC(=O)[C@H](CCCCN*)NC(=O)CC[C@H](NC(=O)CC[C@H](NC(=O)CCCCCc1ccccc1)C(=O)O)C(=O)O; X18 = NC(=O)[C@H](CCCCN*)NC(=O)CC[C@H](NC(=O)CC[C@H](NC(=O)CCCc1ccccc1)C(=O)O)C(=O)O; X17 = NC(=O)[C@H](CCCCN*)NC(=O)CC[C@H](NC(=O)CCCc1ccc(I)cc1)C(=O)O; Trp(1-CH2CO) = O=C([C@H](Cc1cn(CC(=O)[*:3])c2ccccc12)N[*:1])[*:2]; Trp(5-OH) = N[C@@H](Cc1c[nH]c2ccc(O)cc12)C(=O)O; Phe(4-COOH) = N[C@@H](Cc1ccc(C(=O)O)cc1)C(=O)O; Piperazinyl(4-CH2COOH) = O=C(O)CN1CCN(*)CC1; X2 = O=C([C@@H]1CCCN1[*:2])[*:1]; hArg = N=C(N)NCCCC[C@H](N)C(=O)O; NMeK = CN[C@@H](CCCCN)C(=O)O; X16 = CN(CC(=O)[*:1])[*:2]; X4 = O=C(CN[*:2])[*:1]; Aib = CC(C)(N)C(=O)O; CO = O=C([*:1])[*:2]

Molecular target: T1, Recombinant human GhR-Fc protein (Homo sapiens, UniProt P10912)
T1 construct: purchased R&D Systems
Test: SPR binding assay (Biacore T200, single-cycle kinetics) of peptides against immobilized human GhR-Fc
Method: SPR assay was performed using Biacore T200 (cytiva: Former GE Healthcare). After the equilibration of Series S Sensor Chip CM5 (produced by cytiva: Former GE Healthcare) with Running Buffer (HBS-EP with 1% (v/v) DMSO), an EDC/NHS mixture was injected at a flow rate of 10 μL/min for 7 minutes to thereby activate the functional groups on sensor chip. Recombinant human GhR-Fc protein (R&D Systems) in 10 mM Acetate (pH 4.0) was injected immobilized to at a flow rate of 5 μL/min. It took 7 minutes to immobilize the GhR on the substrate surfaces of the sensor chip. Then Ethanolamine was injected at a flow rate of 10 μL/min for 7 minutes. 1M Ethanolamine (aq.) was injected at a flow rate of 10 μL/min for 420 seconds for capping.
Using these Peptide Samples, kinetics of peptides against human GhR-Fc protein were measured. The method adopted for sample measurement was a single-cycle kinetics method. The analysis was conducted using the evaluation software provided with Biacore T200. A DMSO correction curve obtained by solvent correction measurements was applied for the analysis. Kinetics fitting was done on the difference data obtained by subtracting the baseline data from sample measurement data. KD values were calculated based on the association rate constant (ka) and dissociation rate constant (kd). […]

[1] = SPR, hGhR, Table 1 bicyclic peptides, KD calculated from ka and kd, read-out: KD

T1 sequence (P10912 with tags, fused parts or gaps limits assumed): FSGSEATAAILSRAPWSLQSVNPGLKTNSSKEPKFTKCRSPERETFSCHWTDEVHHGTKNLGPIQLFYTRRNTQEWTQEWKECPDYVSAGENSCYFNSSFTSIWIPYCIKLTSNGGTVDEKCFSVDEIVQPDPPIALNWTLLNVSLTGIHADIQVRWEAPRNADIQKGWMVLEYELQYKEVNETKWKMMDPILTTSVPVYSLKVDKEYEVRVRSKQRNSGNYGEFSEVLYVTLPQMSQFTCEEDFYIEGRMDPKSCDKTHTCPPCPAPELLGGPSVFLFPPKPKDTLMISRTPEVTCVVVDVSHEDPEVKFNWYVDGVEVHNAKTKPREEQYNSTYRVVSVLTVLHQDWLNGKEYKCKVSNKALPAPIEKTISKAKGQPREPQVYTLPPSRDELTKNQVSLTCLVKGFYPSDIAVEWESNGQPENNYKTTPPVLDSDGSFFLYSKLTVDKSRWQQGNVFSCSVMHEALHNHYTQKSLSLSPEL

Kd [1]	Compound	Kd
0.7 nM	CC(C)[C@@H]1NC(=O)[C@H](C(C)C)NC(=O)[C@@H]2CCCCNC(=O)Cn3cc(c4ccccc43)C[C@H](NC(=O)[C@H](CC(N)=O)NC(=O)[C@H](CO)NC1=O)C(=O)N[C@@H](Cc1ccc(O)cc1)C(=O)N[C@@H](CCCCN)C(=O)N[C@@H](Cc1c[nH]c3ccc(O)cc13)C(=O)NC(C)(C)C(=O)N[C@@H](C(C)C)C(=O)N[C@H](C(=O)NCC(N)=O)CSCC(=O)N[C@@H](Cc1ccc(O)cc1)C(=O)N2C [Compound 1] ({CH2CO}-Y[NMeK]VVSN[Trp(1-CH2CO)]YK[Trp(5-OH)][Aib]VCG-NH2; lactam 2-7; thioether N-13; C-terminus assumed)	–
1.22 nM	CC(C)[C@@H]1NC(=O)[C@H](C(C)C)NC(=O)[C@@H]2CCCCNC(=O)CNC(=O)Cn3cc(c4ccccc43)C[C@H](NC(=O)[C@H](CC(N)=O)NC(=O)[C@H](CO)NC1=O)C(=O)N[C@@H](Cc1ccc(O)cc1)C(=O)N[C@@H](CCCCN)C(=O)N[C@@H](Cc1c[nH]c3ccc(O)cc13)C(=O)NC(C)(C)C(=O)N[C@@H](C(C)C)C(=O)N[C@H](C(=O)NCC(N)=O)CSCC(=O)N[C@@H](Cc1ccc(O)cc1)C(=O)N2C [Compound 2] ({CH2CO}-Y[NMeK]VVSN[Trp(1-CH2CO)]YK[Trp(5-OH)][Aib]VCG-NH2; linker 2-7 via X4; thioether N-13; C-terminus assumed)	–
1.71 nM	CC(C)[C@@H]1NC(=O)[C@H](C(C)C)NC(=O)[C@@H]2CCCCNC(=O)CN(C)C(=O)Cn3cc(c4ccccc43)C[C@H](NC(=O)[C@H](CC(N)=O)NC(=O)[C@H](CO)NC1=O)C(=O)N[C@@H](Cc1ccc(O)cc1)C(=O)N[C@@H](CCCCN)C(=O)N[C@@H](Cc1c[nH]c3ccc(O)cc13)C(=O)NC(C)(C)C(=O)N[C@@H](C(C)C)C(=O)N[C@H](C(=O)NCC(N)=O)CSCC(=O)N[C@@H](Cc1ccc(O)cc1)C(=O)N2C [Compound 3] ({CH2CO}-Y[NMeK]VVSN[Trp(1-CH2CO)]YK[Trp(5-OH)][Aib]VCG-NH2; linker 2-7 via X16; thioether N-13)	–
1.07 nM	CC(C)[C@@H]1NC(=O)[C@H](C(C)C)NC(=O)[C@@H]2CCCCNC(=O)[C@@H]3CCCN3C(=O)Cn3cc(c4ccccc43)C[C@H](NC(=O)[C@H](CC(N)=O)NC(=O)[C@H](CO)NC1=O)C(=O)N[C@@H](Cc1ccc(O)cc1)C(=O)N[C@@H](CCCCN)C(=O)N[C@@H](Cc1c[nH]c3ccc(O)cc13)C(=O)NC(C)(C)C(=O)N[C@@H](C(C)C)C(=O)N[C@H](C(=O)NCC(N)=O)CSCC(=O)N[C@@H](Cc1ccc(O)cc1)C(=O)N2C [Compound 4] ({CH2CO}-Y[NMeK]VVSN[Trp(1-CH2CO)]YK[Trp(5-OH)][Aib]VCG-NH2; linker 2-7 via X2; thioether N-13)	–
0.96 nM	CC(C)[C@@H]1NC(=O)[C@H](C(C)C)NC(=O)[C@@H]2CCCCNC(=O)Cn3cc(c4ccccc43)C[C@H](NC(=O)[C@H](CC(N)=O)NC(=O)[C@H](CO)NC1=O)C(=O)N[C@@H](Cc1ccc(C(=O)O)cc1)C(=O)N[C@@H](CCCCNC(=N)N)C(=O)N[C@@H](Cc1c[nH]c3ccc(O)cc13)C(=O)NC(C)(C)C(=O)N[C@@H](C(C)C)C(=O)N[C@H](C(=O)NCCCC[C@H](NC(=O)CC[C@H](NC(=O)CC[C@H](NC(=O)CCCc1ccc(I)cc1)C(=O)O)C(=O)O)C(N)=O)CSCC(=O)N[C@@H](Cc1ccc(C(=O)O)cc1)C(=O)N2C [Compound 7] ({CH2CO}-[Phe(4-COOH)][NMeK]VVSN[Trp(1-CH2CO)][Phe(4-COOH)][hArg][Trp(5-OH)][Aib]VC-X10; lactam 2-7; thioether N-13)	–
2.03 nM	CC(C)[C@@H]1NC(=O)[C@H](C(C)C)NC(=O)[C@@H]2CCCCNC(=O)Cn3cc(c4ccccc43)C[C@H](NC(=O)[C@H](CC(N)=O)NC(=O)[C@H](CO)NC1=O)C(=O)N[C@@H](Cc1ccc(C(=O)O)cc1)C(=O)N[C@@H](CCCCN)C(=O)N[C@@H](Cc1c[nH]c3ccc(O)cc13)C(=O)NC(C)(C)C(=O)N[C@@H](C(C)C)C(=O)N[C@H](C(=O)NCCCC[C@H](NC(=O)CC[C@H](NC(=O)CC[C@H](NC(=O)CCCc1ccccc1)C(=O)O)C(=O)O)C(N)=O)CSCC(=O)N[C@@H](Cc1ccc(C(=O)O)cc1)C(=O)N2C [Compound 10] ({CH2CO}-[Phe(4-COOH)][NMeK]VVSN[Trp(1-CH2CO)][Phe(4-COOH)]K[Trp(5-OH)][Aib]VC-X18; lactam 2-7; thioether N-13)	–
1.95 nM	Cc1ccc(CCCC(=O)N[C@@H](CCC(=O)N[C@@H](CCC(=O)N[C@@H](CCCCNC(=O)[C@@H]2CSCC(=O)N[C@@H](Cc3ccc(C(=O)O)cc3)C(=O)N(C)[C@H]3CCCCNC(=O)Cn4cc(c5ccccc54)C[C@H](NC(=O)[C@H](CC(N)=O)NC(=O)[C@H](CO)NC(=O)[C@H](C(C)C)NC(=O)[C@H](C(C)C)NC3=O)C(=O)N[C@@H](Cc3ccc(C(=O)O)cc3)C(=O)N[C@@H](CCCCN)C(=O)N[C@@H](Cc3c[nH]c4ccc(O)cc34)C(=O)NC(C)(C)C(=O)N[C@@H](C(C)C)C(=O)N2)C(N)=O)C(=O)O)C(=O)O)cc1 [Compound 12] ({CH2CO}-[Phe(4-COOH)][NMeK]VVSN[Trp(1-CH2CO)][Phe(4-COOH)]K[Trp(5-OH)][Aib]VC-X19; lactam 2-7; thioether N-13)	–
1.36 nM	CC(C)[C@@H]1NC(=O)[C@H](C(C)C)NC(=O)[C@@H]2CCCCNC(=O)Cn3cc(c4ccccc43)C[C@H](NC(=O)[C@H](CC(N)=O)NC(=O)[C@H](CO)NC1=O)C(=O)N[C@@H](Cc1ccc(C(=O)O)cc1)C(=O)N[C@@H](CCCCN)C(=O)N[C@@H](Cc1c[nH]c3ccc(O)cc13)C(=O)NC(C)(C)C(=O)N[C@@H](C(C)C)C(=O)N[C@H](C(=O)NCCCC[C@H](NC(=O)CC[C@H](NC(=O)CCCc1ccc(I)cc1)C(=O)O)C(N)=O)CSCC(=O)N[C@@H](Cc1ccc(C(=O)O)cc1)C(=O)N2C [Compound 13] ({CH2CO}-[Phe(4-COOH)][NMeK]VVSN[Trp(1-CH2CO)][Phe(4-COOH)]K[Trp(5-OH)][Aib]VC-X17; lactam 2-7; thioether N-13)	–
–	CC(C)[C@@H]1NC(=O)[C@H](C(C)C)NC(=O)[C@@H]2CCCCNC(=O)Cn3cc(c4ccccc43)C[C@H](NC(=O)[C@H](CC(N)=O)NC(=O)[C@H](CO)NC1=O)C(=O)N[C@@H](Cc1ccc(C(=O)O)cc1)C(=O)N[C@@H](CCCCN)C(=O)N[C@@H](Cc1c[nH]c3ccc(O)cc13)C(=O)NC(C)(C)C(=O)N[C@@H](C(C)C)C(=O)N[C@H](C(=O)NCCCC[C@H](NC(=O)CC[C@H](NC(=O)CC[C@H](NC(=O)CCCc1ccc(-c3ccccc3)cc1)C(=O)O)C(=O)O)C(N)=O)CSCC(=O)N[C@@H](Cc1ccc(C(=O)O)cc1)C(=O)N2C [Compound 15] ({CH2CO}-[Phe(4-COOH)][NMeK]VVSN[Trp(1-CH2CO)][Phe(4-COOH)]K[Trp(5-OH)][Aib]VC-X12; lactam 2-7; thioether N-13)	1.61 nM
1.93 nM	CC(C)[C@@H]1NC(=O)[C@H](C(C)C)NC(=O)[C@@H]2CCCCNC(=O)Cn3cc(c4ccccc43)C[C@H](NC(=O)[C@H](CC(N)=O)NC(=O)[C@H](CO)NC1=O)C(=O)N[C@@H](Cc1ccc(C(=O)O)cc1)C(=O)N[C@@H](CCCCN)C(=O)N[C@@H](Cc1c[nH]c3ccc(O)cc13)C(=O)NC(C)(C)C(=O)N[C@@H](C(C)C)C(=O)N[C@H](C(=O)NCCCC[C@H](NC(=O)CC[C@H](NC(=O)CC[C@H](NC(=O)CCCCCc1ccccc1)C(=O)O)C(=O)O)C(N)=O)CSCC(=O)N[C@@H](Cc1ccc(C(=O)O)cc1)C(=O)N2C [Compound 16] ({CH2CO}-[Phe(4-COOH)][NMeK]VVSN[Trp(1-CH2CO)][Phe(4-COOH)]K[Trp(5-OH)][Aib]VC-X5; lactam 2-7; thioether N-13)	–
4.1 nM	CC(C)[C@@H]1NC(=O)[C@H](C(C)C)NC(=O)[C@@H]2CCCCNC(=O)Cn3cc(c4ccccc43)C[C@H](NC(=O)[C@H](CC(N)=O)NC(=O)[C@H](CO)NC1=O)C(=O)N[C@@H](Cc1ccc(O)cc1)C(=O)N[C@@H](CCCCNC(=O)N1CCN(CC(=O)O)CC1)C(=O)N[C@@H](Cc1c[nH]c3ccc(O)cc13)C(=O)NC(C)(C)C(=O)N[C@@H](C(C)C)C(=O)N[C@H](C(=O)NCCCC[C@H](NC(=O)CC[C@H](NC(=O)CC[C@H](NC(=O)CCCCCCCCCCCCCCC(=O)O)C(=O)O)C(=O)O)C(N)=O)CSCC(=O)N[C@@H](Cc1ccc(C(=O)O)cc1)C(=O)N2C [Compound 17] ({CH2CO}-[Phe(4-COOH)][NMeK]VVSN[Trp(1-CH2CO)]YK([CO-Piperazinyl(4-CH2COOH)])[Trp(5-OH)][Aib]VC-X3; lactam 2-7; thioether N-13)	–

Compound	Kd [1]	Kd
CC(C)[C@@H]1NC(=O)[C@H](C(C)C)NC(=O)[C@@H]2CCCCNC(=O)Cn3cc(c4ccccc43)C[C@H](NC(=O)[C@H](CC(N)=O)NC(=O)[C@H](CO)NC1=O)C(=O)N[C@@H](Cc1ccc(C(=O)O)cc1)C(=O)N[C@@H](CCCCN)C(=O)N[C@@H](Cc1c[nH]c3ccc(O)cc13)C(=O)NC(C)(C)C(=O)N[C@@H](C(C)C)C(=O)N[C@H](C(=O)NCCCC[C@H](NC(=O)CC[C@H](NC(=O)CC[C@H](NC(=O)CCCCCCCCCCCCCCC(=O)O)C(=O)O)C(=O)O)C(N)=O)CSCC(=O)N[C@@H](Cc1ccc(C(=O)O)cc1)C(=O)N2C [Compound 11] ({CH2CO}-[Phe(4-COOH)][NMeK]VVSN[Trp(1-CH2CO)][Phe(4-COOH)]K[Trp(5-OH)][Aib]VC-X3; lactam 2-7; thioether N-13)	2.85 nM	–
